How the values were obtained:
[1] = system: rats on a 0.9% phosphorus diet; experiment: Serum phosphate after withdrawal of 2′-PP (in vivo half-life); design: species or system rat
Method: Rats on a 0.9% phosphorus diet were given 10 μM [^3H]2′-PP in their water for 2 weeks. Serum phosphate and calcium were determined by spectrophotometric assays. Following the experimental period, 2′-PP was removed from the water, and the stool was examined for radioactivity at days 1, 3, 5 and 8, and serum phosphate was examined.
The apparent half-time to return to normal serum phosphate levels was approximately 3 days. […] During this maturation period, crypt cells express the intestinal brush border membrane Na/phosphate co-transporter.

[2] = molecular target: T1, intestinal BBM Na/phosphate co-transporter (Oryctolagus cuniculus, UniProt G1SIP4)
T1 sequence (G1SIP4 25-715): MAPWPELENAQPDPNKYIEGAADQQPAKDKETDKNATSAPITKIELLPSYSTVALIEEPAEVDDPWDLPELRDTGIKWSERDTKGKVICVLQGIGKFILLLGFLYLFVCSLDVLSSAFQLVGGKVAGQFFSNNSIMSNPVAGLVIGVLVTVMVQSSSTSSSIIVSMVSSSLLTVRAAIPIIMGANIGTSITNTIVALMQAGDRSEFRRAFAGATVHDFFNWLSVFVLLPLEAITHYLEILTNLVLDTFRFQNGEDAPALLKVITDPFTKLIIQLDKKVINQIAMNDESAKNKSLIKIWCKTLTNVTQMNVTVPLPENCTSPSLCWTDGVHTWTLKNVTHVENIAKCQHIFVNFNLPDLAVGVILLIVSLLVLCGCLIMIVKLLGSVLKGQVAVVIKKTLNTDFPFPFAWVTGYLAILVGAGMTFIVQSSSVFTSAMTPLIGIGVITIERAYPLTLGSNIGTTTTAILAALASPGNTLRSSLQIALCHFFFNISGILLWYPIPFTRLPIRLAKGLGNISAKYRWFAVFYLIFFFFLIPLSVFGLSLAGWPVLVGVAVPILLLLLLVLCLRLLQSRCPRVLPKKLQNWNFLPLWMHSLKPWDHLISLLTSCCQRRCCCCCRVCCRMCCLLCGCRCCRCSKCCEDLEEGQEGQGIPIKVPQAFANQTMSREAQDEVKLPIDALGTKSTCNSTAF

[3] = 10 μM [3H]2′-PP in water for 2 weeks, then removed

In the case of O=C(CCc1ccc(O)cc1)c1c(O)cc(O)cc1OP(=O)(O)O, the “apparent half-time to return to normal serum phosphate levels” value [1, 3] is reported as “approximately 3 days”, the “time for serum phosphate to return to normal (control) level after withdrawal” value [1, 3] is reported as “five” and the inhibition at 10 µM ([1]; Rattus norvegicus, 10 μM 2′-PP administered daily, read-out: inhibition of the Na/phosphate co-transporter in vivo) is reported as ~100%. The “2′-PP bound (kinetic analysis of trace B)” value [2] was 8.5 pmoles 2′-PP bound/mg protein, the “2′-PP bound at infinite osmotic strength” value [2] was 8±0.6 pmoles of 2′-PP bound/mg protein and the “2′-PP bound in the absence of Na” value [2] was 0.12±0.005 pmoles 2′-PP bound/mg protein. The “Hill coefficient nH of Na effect on 2′-PP binding” value [2] was 1.9±0.25, the “[3H]2′-PP binding sites” value [2] was 9 pmoles [^3H]2′-PP bound/mg protein and the “apparent K0.5 for Na (Na concentration at 50% 2′-PP bound)” value [2] was 23 ± 3 mM. For the same compound, the “transport by the Na/phosphate co-transporter” value [2] was “not transported”.

Source: patent US6355823B1 (Board of Regents, The University of Texas System, priority 1999, dated 2002)
